Measurements as given in patent US12286452B2, “Amphiphilic aminoglycoside connexin hemichannel inhibitors” (Texas Tech University System, priority 2018, dated 2025).
Like-named read-outs stand apart in the source and are kept apart here. Values belong to the compound of their own block, whether it stands above or below them.

Key:
Cx43 HCs [1] = biological target: T1, Cx43 HCs (Homo sapiens, UniProt P17302); conditions: commercial aminoglycosides, the 16th table, adapted from ref. 1; read-out: Cx43 IC50; cited from earlier work
T1 construct: expressed in transfected cells

Cx43 HCs [2] = biological target: T1, Cx43 HCs; test: Cx43-dependent growth complementation assay in E. coli LB2003; type: cell-based; conditions: for Cx43/Cx26 Selectivity: IC50 Cx26/IC50 Cx43; for inhibition at 15 µM / Cx43 inhibition (%): 15 μM
human Cx26 HCs [3] = biological target: T2, human Cx26 HCs (Homo sapiens, UniProt P29033); conditions: commercial aminoglycosides, the 16th table, adapted from ref. 1; cited from earlier work
T2 construct: expressed in transfected cells; host or cells: E. coli LB2003 (carrying pREP4), transformed with pQE-Cx26, IPTG-induced

human Cx26 HCs [4] = biological target: T2, human Cx26 HCs; test: Cx26-dependent growth complementation assay in E. coli LB2003; type: cell-based
Protocol: These derivatives were prepared by sequential benzylation and methylation followed by reduction of azido groups or hydrogenolysis of the Bn. […] Connexin HC inhibition was conducted using a bacteria-based assay of HC function^39. In this assay, Cx26 HCs are expressed in E. coli LB2003 cells, which lack three major K^+ uptake systems (Kdp, Kup and Trk), and as a result they cannot grow in low-[K^+] media^39-41. However, growth of this E. coli strain in low-[K^+] medium can be rescued by expression of K^+-permeable channels such as connexin HCs^39, 42-43. Under the conditions of the assay (LB2003 cells expressing HCs and grown in low-K^+ medium), inhibition of the HCs reduces or abolishes growth^39, 42-43. This is a simple assay where bacterial growth in multi-well plates can be followed by measuring the absorbance at 600 nm (OD600)^29.
LB2003 cells generously provided by Dr. E. P. Bakker (Osnabruk University, Osnabruk, Germany) were transformed with the plasmid pQE-Cx26 (human Cx26 into pQE60) and pREP4. […] LB2003 cells cannot grow in low-[K^+] media because of insufficient K^+ uptake for growth due to the knockout of three key K^+ transporters (Atrk, Akup, Akdp strain)^2-4. Details and validation of the growth complementation assay have been published recently^2. In brief, competent LB2003 containing the pREP4 plasmid were transformed with pQE-Cx26. These cells were grown overnight in Luria-Bertani medium (BD, Franklin Lakes, NJ, USA) supplemented with 100 mM KCl (to allow growth) and 0.4 mg/mL ampicillin, and then washed four times with NLM (see below), to remove residual K^+ from the Luria-Bertani medium. The washed cells were resuspended in complementation growth medium to an OD600 of 0.2. NLM contained 46 mM Na2HPO4, 23 mM NaH2PO4, 8 mM (NH4)2SO4, 0.4 mM MgSO4, 0.012 mM FeSO4, 1 mM sodium citrate, 44 mM glucose and 0.006 mM thiamine hydrochloride, pH 7.0. KLM had the same composition that NLM except for the equimolar replacement of Na^+ with K^+. For growth complementation we used NLM+4 mM KCl, and Cx26 expression was induced with 0.5 mM IPTG at the time of dilution to OD600=0.2. For the assay, the cells were seeded in 96-well plates and were incubated at 30° C., with shaking at 500 rpm. OD600 was measured after 18-h incubation in a plate reader. The initial OD600=0.2 was subtracted for growth calculations. Data are presented as means±SEM. Statistically significant differences were calculated by the Student t-test for unpaired data. Data were obtained from at least 3 independent experiments, with 3 repeats per experiment.

[5] = K members, the 21st table, read-out: Cx43 % inhibition
[6] = Table 6, read-out: Cx43 (% inhibition)
[7] = the 15th table, second Cx43 column, sub-head and unit not given
[8] = the 15th table, sub-head and unit inferred, read-out: Cx43 IC50
[9] = the 22nd table, read-out: Cx43 IC50
[10] = the 24th table, read-out: Cx43 IC50
[11] = Table 3, read-out: Cx243% inhibition
[12] = KI members, the 23rd table, read-out: Cx43 % inhibition

T1 sequence (P17302 whole entry): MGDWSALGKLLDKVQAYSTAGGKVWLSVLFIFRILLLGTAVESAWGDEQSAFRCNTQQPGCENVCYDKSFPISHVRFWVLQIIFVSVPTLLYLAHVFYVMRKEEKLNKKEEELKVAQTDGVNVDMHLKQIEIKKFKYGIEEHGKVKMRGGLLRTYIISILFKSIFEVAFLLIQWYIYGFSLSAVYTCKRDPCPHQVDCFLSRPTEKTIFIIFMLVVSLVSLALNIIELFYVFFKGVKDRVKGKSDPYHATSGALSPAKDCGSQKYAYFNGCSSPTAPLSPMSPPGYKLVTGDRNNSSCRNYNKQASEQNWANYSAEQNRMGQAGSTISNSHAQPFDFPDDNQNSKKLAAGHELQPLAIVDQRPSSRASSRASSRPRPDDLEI

Compound: Neomycin
IC50 (Cx43 HCs [1]): 45 ± 9 µM
Cx43/Cx26 Selectivity (Cx43 HCs [2]; the 16th table): 0.16
IC50 (human Cx26 HCs [3]): 7.4 ± 1.3 µM

Compound: NC[C@H]1O[C@H](O[C@H]2[C@H](O[C@@H]3O[C@H](CO)[C@@H](O)[C@H]3O)[C@@H](O)[C@H](N)C[C@@H]2N)[C@H](N)[C@@H](O)[C@@H]1O [Ribostamycin]
IC50 (Cx43 HCs [1]): > 200 µM
IC50 (human Cx26 HCs [3]): > 100 µM

Compound: NC[C@H]1O[C@H](O[C@H]2[C@H](O)[C@@H](O[C@@H]3O[C@H](COCc4ccc(F)cc4)[C@@H](OCc4ccc(F)cc4)[C@H](N)[C@H]3O)[C@H](N)C[C@@H]2N)[C@H](O)[C@@H](O)[C@@H]1O [Compound 13, 4″,6″-Di-O-(4-flurobenzyl) kanamycin]
IC50 (Cx43 HCs [2]; 4″,6″-disubstituted AKs, Table 5, read-out: Cx43 IC50): 26.6 ± 7.8 µM
Cx43/Cx26 Selectivity (Cx43 HCs [2]; Table 5): 0.30
IC50 (Cx43 HCs [2]; K46 members, the 20th table, read-out: IC50 (μM) against Cx43): 26.6 ± 7.8 µM
Cx43 Imax (maximal inhibition) (Cx43 HCs [2]; the 12th table, Hill fit): 110 ± 33%
IC50 (Cx43 HCs [2]; the 12th table, Hill fit, mean ± SEM, some n = 1, read-out: Cx43 IC50): 26.6 ± 7.8 µM
IC50 (human Cx26 HCs [4]; 4″,6″-disubstituted AKs, Table 5, read-out: Cx26 IC50): 8.1 ± 0.5 µM
IC50 (human Cx26 HCs [4]; K46 members, the 20th table, read-out: IC50 (μM) against Cx26): 8.1 ± 0.5 µM
IC50 (human Cx26 HCs [4]; first Table 2, read-out: IC50, inhibition of Cx26 by synthetic AGs): 8.1 ± 0.5 µM

Now from value to compound:

inhibition at 15 µM (Cx43 HCs [2]; [5]): 58.4 ± 10.6%
Cx43 inhibition (%) (Cx43 HCs [2]; Table 6, listed as 8b): 63.8 ± 6.8%
inhibition at 15 µM (Cx43 HCs [2]; [6]): > 50%
inhibition at 50 µM (Cx43 HCs [2]; [5]): 71 ± 14.1%
inhibition at 50 µM (Cx43 HCs [2]; [6]): 76.8 ± 5.8%
Cx43/Cx26 Selectivity (Cx43 HCs [2]; Table 7, listed as 8b): 7.97
IC50 (Cx43 HCs [2]; Table 7, read-out: Cx43 IC50): 6.2 ± 1.4 µM
Cx43 Imax (Cx43 HCs [2]; [7]): 91.1 ± 11.5
IC50 (Cx43 HCs [2]; [8]): 7.1 ± 1.4 µM
Cx43 Imax (Cx43 HCs [2]; the 22nd table): 91.1 ± 11.5%
IC50 (Cx43 HCs [2]; [9]): 7.1 ± 1.4 µM
Cx43 Imax (Cx43 HCs [2]; the 24th table): 91.1 ± 11.5%
IC50 (Cx43 HCs [2]; [10]): 7.1 ± 1.4 µM
inhibition at 15 µM (human Cx26 HCs [4]; Table 3): 19.3 ± 2.2%
inhibition at 15 µM (human Cx26 HCs [4]; Table 6): 19.3 ± 2.2%
inhibition at 50 µM (human Cx26 HCs [4]; Table 3): 28.2 ± 4.5%
inhibition at 50 µM (human Cx26 HCs [4]; Table 6): 28.2 ± 4.5%
IC50 (human Cx26 HCs [4]; Table 7, read-out: Cx26 IC50): 49.4 ± 9.3 µM
Compound: Cc1ccc(OC[C@H]2OC(OC3C(N)CC(N)C(O[C@H]4OC(CN)[C@@H](O)C(O)C4O)[C@@H]3O)[C@H](O)C(N)C2O)cc1 (stereo partly drawn) [Compound K82]

inhibition at 15 µM (Cx43 HCs [2]; [5]): 36.5 ± 0.6%
inhibition at 15 µM (Cx43 HCs [2]; [11]): 36.5 ± 0.6%
inhibition at 15 µM (Cx43 HCs [2]; [6]): 36.5 ± 0.6%
inhibition at 50 µM (Cx43 HCs [2]; [5]): 49.3 ± 2.2%
inhibition at 50 µM (Cx43 HCs [2]; [11]): 49.3 ± 2.2%
inhibition at 50 µM (Cx43 HCs [2]; [6]): 49.3 ± 2.2%
inhibition at 15 µM (human Cx26 HCs [4]; Table 3): 35.9 ± 2.9%
inhibition at 15 µM (human Cx26 HCs [4]; Table 6): 35.9 ± 2.9%
inhibition at 50 µM (human Cx26 HCs [4]; Table 3): 62.6 ± 9.2%
inhibition at 50 µM (human Cx26 HCs [4]; Table 6): 62.6 ± 9.2%
Compound: NCC1O[C@H](OC2C(N)CC(N)C(OC3O[C@H](COc4ccc([N+](=O)[O-])cc4)C(O)C(N)[C@H]3O)[C@H]2O)C(O)C(O)[C@@H]1O (stereo partly drawn) [Compound K36]

inhibition at 15 µM (Cx43 HCs [2]; [12]): 17 ± 5.2%
inhibition at 15 µM (Cx43 HCs [2]; [11]): 17 ± 5.2%
inhibition at 15 µM (Cx43 HCs [2]; [6]): 17 ± 5.2%
inhibition at 50 µM (Cx43 HCs [2]; [12]): 37.2 ± 7.6%
inhibition at 50 µM (Cx43 HCs [2]; [11]): 37.2 ± 7.6%
inhibition at 50 µM (Cx43 HCs [2]; [6]): 37.2 ± 7.6%
inhibition at 15 µM (human Cx26 HCs [4]; Table 3): 14 ± 2.1%
inhibition at 15 µM (human Cx26 HCs [4]; Table 6): 14 ± 2.1%
inhibition at 50 µM (human Cx26 HCs [4]; Table 3): 25.2 ± 2.3%
inhibition at 50 µM (human Cx26 HCs [4]; Table 6): 25.2 ± 2.3%
Compound: CCCCCCCC(=O)NCC1O[C@H](OC2C(N)CC(N)C(OC3O[C@H](CO)C(O)C(N)[C@H]3O)[C@H]2O)C(O)C(O)[C@@H]1O (stereo partly drawn) [KI02]

inhibition at 15 µM (Cx43 HCs [2]; [5]): 45.8 ± 6.4%
Cx43 inhibition (%) (Cx43 HCs [2]; Table 6, listed as 8d): 50.3 ± 1.0%
inhibition at 15 µM (Cx43 HCs [2]; [6]): > 50%
inhibition at 50 µM (Cx43 HCs [2]; [5]): 76.7 ± 7.7%
inhibition at 50 µM (Cx43 HCs [2]; [6]): 68.3 ± 4.6%
Cx43/Cx26 Selectivity (Cx43 HCs [2]; Table 7): 1.93
IC50 (Cx43 HCs [2]; Table 7, read-out: Cx43 IC50): 8.9 ± 1.6 µM
Cx43 Imax (Cx43 HCs [2]; [7]): 80.6 ± 6.0
IC50 (Cx43 HCs [2]; [8]): 8.9 ± 1.6 µM
Cx43 Imax (Cx43 HCs [2]; the 22nd table): 80.6 ± 6.0%
IC50 (Cx43 HCs [2]; [9]): 8.9 ± 1.6 µM
Cx43 Imax (Cx43 HCs [2]; the 24th table): 80.6 ± 6.0%
IC50 (Cx43 HCs [2]; [10]): 8.9 ± 1.6 µM
inhibition at 15 µM (human Cx26 HCs [4]; Table 3): 44.4 ± 7%
inhibition at 15 µM (human Cx26 HCs [4]; Table 6): 44.4 ± 7%
inhibition at 50 µM (human Cx26 HCs [4]; Table 3): 69.5 ± 4.5%
inhibition at 50 µM (human Cx26 HCs [4]; Table 6): 69.5 ± 4.5%
Cx26 Imax (human Cx26 HCs [4]; the 15th table, Cx26, sub-head and unit not given): 95.9 ± 10.9
IC50 (human Cx26 HCs [4]; the 15th table, Cx26, unit not given (cf. the 22nd table), read-out: Cx26 IC50): 17.2 ± 3.2 µM
Cx26 Imax (human Cx26 HCs [4]; the 22nd table): 95.9 ± 10.9%
Cx26 Imax (human Cx26 HCs [4]; the 24th table): 95.9 ± 10.9%
Compound: NCC1O[C@H](OC2C(N)CC(N)C(OC3O[C@H](COc4ccc(Cl)cc4)C(O)C(N)[C@H]3O)[C@H]2O)C(O)C(O)[C@@H]1O (stereo partly drawn) [Compound K84]
